Read-outs that look alike come from different tables or passages of the source.
Experiment: Ocular pharmacokinetics of formulations, Example 20-5
Format: in vivo, Dutch Belted rabbits
Conditions: 1 hr post dose on Day 5
Method: The study design (Table 19-1) consisted of forty-seven (47) Dutch Belted rabbits, each receiving a 30 μL bilateral topical ocular dose. Various suspension formulations of the present application were evaluated and compared against a cyclodextrin-based eye drops solution (Control Group 1, Table 19-1). Formula II or Compound-I was used in the test suspensions as well as the Eye Drops solution.
Ocular sampling occurred one hour following the first daily dose on Day 5 for all groups. Whole blood samples using K2EDTA as an anticoagulant were collected from all animals on Day 5, 1 hour post dose. The whole blood was placed on ice until samples were spun in a centrifuge to separate the plasma. Aqueous humor, conjunctiva, cornea, central retina, peripheral retina, central choroid, and peripheral choroid samples were collected following necropsy. Samples were then frozen at −70° C. or lower. For all Groups 1-15, plasma, central retina, central choroid, and cornea samples were assayed. For Group 5 only, samples were analyzed for Vitamin K3.
An analytical method for the analysis of Vitamin K3 was determined in plasma, central retina, central choroid, and cornea samples from Group 5 animals. A calibration curve prepared in control vitreous humor was used to determine the concentration of Vitamin K3. Internal standard (IS) responses were inconsistent for the central choroid and plasma samples. Thus, positive plasma results were likely due to the reduced IS response.

Cl.NC(=O)c1c(OCc2c(F)cc(Br)cc2F)nsc1NC(=O)NCCCCN1CCCC1 [Compound-I, 3-[(4-bromo-2,6-difluorophenyl)methoxy]-5-[[[[4-(1-pyrrolidinyl)butyl]amino]carbonyl]amino]-4-isothiazolecarboxamide hydrochloride]
concentration at 1 h (Dutch Belted, rabbit, central retina, topical, 1 mg/mL (30 μL per eye, bilateral), Group 7: 1 mg/mL suspension, 50 μm particles, TRIS 0.60%, glycerol 2%, HEC 0.2%, HPMC 0.08%, Vitamin K3 1 μM, pH 6, QD for 4 days, read-out: Central Retina concentration): 25.6 nM | concentration at 1 h (Dutch Belted, rabbit, central retina, topical, 2 mg/mL (30 μL per eye, bilateral), Group 9: 2 mg/mL suspension, 50 μm particles, TRIS 0.60%, glycerol 2%, HEC 0.2%, HPMC 0.08%, Vitamin K3 1 μM, pH 6, QD for 4 days, read-out: Central Retina concentration): 63.4 nM | concentration at 1 h (Dutch Belted, rabbit, central retina, topical, 4 mg/mL (30 μL per eye, bilateral), Group 5: 4 mg/mL suspension (Control), 30 μm particles (Table 19-1) / Native (≈50) (Table 19-2), TRIS 0.60%, glycerol 2%, HEC 0.2%, HPMC 0.08%, Vitamin K3 1 μM, pH 6, QD for 4 days, read-out: Central Retina concentration): 44.2 nM | concentration at 1 h (Dutch Belted, rabbit, central retina, topical, 4 mg/mL, 30 μL per eye, pH 6, Group 1: 4 mg/mL Ophthalmic Solution, pH 6 (Control), QD for 4 days, read-out: Central Retina concentration): 55.1 nM | concentration at 1 h (Dutch Belted, rabbit, central retina, topical, 30 μL per eye, Group 11: 6 mg/mL suspension, 50 μm particles, TRIS 0.60%, glycerol 2%, HEC 0.2%, HPMC 0.08%, Vitamin K3 1 μM, pH 6, QD for 4 days, read-out: Central Retina concentration): 91.5 nM | concentration at 1 h (Dutch Belted, rabbit, central retina, topical, 30 μL per eye, Group 12: 10 mg/mL suspension, 50 μm particles, TRIS 0.60%, glycerol 2%, HEC 0.2%, HPMC 0.08%, Vitamin K3 1 μM, pH 6, QD for 4 days, read-out: Central Retina concentration): 114 nM | concentration at 1 h (Dutch Belted, rabbit, cornea, topical, 1 mg/mL (30 μL per eye, bilateral), Group 7: 1 mg/mL suspension, 50 μm particles, TRIS 0.60%, glycerol 2%, HEC 0.2%, HPMC 0.08%, Vitamin K3 1 μM, pH 6, QD for 4 days, read-out: Cornea concentration): 1240 nM | concentration at 1 h (Dutch Belted, rabbit, cornea, topical, 2 mg/mL (30 μL per eye, bilateral), Group 9: 2 mg/mL suspension, 50 μm particles, TRIS 0.60%, glycerol 2%, HEC 0.2%, HPMC 0.08%, Vitamin K3 1 μM, pH 6, QD for 4 days, read-out: Cornea concentration): 2280 nM | concentration at 1 h (Dutch Belted, rabbit, cornea, topical, 4 mg/mL (30 μL per eye, bilateral), Group 5: 4 mg/mL suspension (Control), 30 μm particles (Table 19-1) / Native (≈50) (Table 19-2), TRIS 0.60%, glycerol 2%, HEC 0.2%, HPMC 0.08%, Vitamin K3 1 μM, pH 6, QD for 4 days, read-out: Cornea concentration): 4470 nM | concentration at 1 h (Dutch Belted, rabbit, cornea, topical, 4 mg/mL, 30 μL per eye, pH 6, Group 1: 4 mg/mL Ophthalmic Solution, pH 6 (Control), QD for 4 days, read-out: Cornea concentration): 14300 nM | concentration at 1 h (Dutch Belted, rabbit, cornea, topical, 30 μL per eye, Group 10: 2 mg/mL suspension, 50 μm particles, TRIS 0.60%, glycerol 2%, HEC 0.2%, HPMC 0.08%, Vitamin K3 1 μM, pH 6, BID for 4 days, read-out: Cornea concentration): 5000 nM | concentration at 1 h (Dutch Belted, rabbit, cornea, topical, 30 μL per eye, Group 11: 6 mg/mL suspension, 50 μm particles, TRIS 0.60%, glycerol 2%, HEC 0.2%, HPMC 0.08%, Vitamin K3 1 μM, pH 6, QD for 4 days, read-out: Cornea concentration): 7070 nM | concentration at 1 h (Dutch Belted, rabbit, cornea, topical, 30 μL per eye, Group 12: 10 mg/mL suspension, 50 μm particles, TRIS 0.60%, glycerol 2%, HEC 0.2%, HPMC 0.08%, Vitamin K3 1 μM, pH 6, QD for 4 days, read-out: Cornea concentration): 24700 nM | concentration at 1 h (Dutch Belted, rabbit, plasma, topical, 1 mg/mL (30 μL per eye, bilateral), Group 7: 1 mg/mL suspension, 50 μm particles, TRIS 0.60%, glycerol 2%, HEC 0.2%, HPMC 0.08%, Vitamin K3 1 μM, pH 6, QD for 4 days, read-out: Plasma concentration): 2.18 nM | concentration at 1 h (Dutch Belted, rabbit, plasma, topical, 2 mg/mL (30 μL per eye, bilateral), Group 9: 2 mg/mL suspension, 50 μm particles, TRIS 0.60%, glycerol 2%, HEC 0.2%, HPMC 0.08%, Vitamin K3 1 μM, pH 6, QD for 4 days, read-out: Plasma concentration): 4.05 nM | concentration at 1 h (Dutch Belted, rabbit, plasma, topical, 4 mg/mL (30 μL per eye, bilateral), Group 5: 4 mg/mL suspension (Control), 30 μm particles (Table 19-1) / Native (≈50) (Table 19-2), TRIS 0.60%, glycerol 2%, HEC 0.2%, HPMC 0.08%, Vitamin K3 1 μM, pH 6, QD for 4 days, read-out: Plasma concentration): 6.26 nM | concentration at 1 h (Dutch Belted, rabbit, plasma, topical, 4 mg/mL, 30 μL per eye, pH 6, Group 1: 4 mg/mL Ophthalmic Solution, pH 6 (Control), QD for 4 days, read-out: Plasma concentration): 4.28 nM | concentration at 1 h (Dutch Belted, rabbit, plasma, topical, 30 μL per eye, Group 11: 6 mg/mL suspension, 50 μm particles, TRIS 0.60%, glycerol 2%, HEC 0.2%, HPMC 0.08%, Vitamin K3 1 μM, pH 6, QD for 4 days, read-out: Plasma concentration): 7.72 nM | concentration at 1 h (Dutch Belted, rabbit, plasma, topical, 30 μL per eye, Group 12: 10 mg/mL suspension, 50 μm particles, TRIS 0.60%, glycerol 2%, HEC 0.2%, HPMC 0.08%, Vitamin K3 1 μM, pH 6, QD for 4 days, read-out: Plasma concentration): 8.61 nM | Plasma concentration (Group 2: 4 mg/mL suspension, 30 μm particles, TRIS 0.60%, glycerol 2%, HEC 0.2%, HPMC 0.08%, Vitamin K3 1 μM, pH 6, QD for 4 days): 4.64 nM | concentration at 1 h (Group 2: 4 mg/mL suspension, 30 μm particles, TRIS 0.60%, glycerol 2%, HEC 0.2%, HPMC 0.08%, Vitamin K3 1 μM, pH 6, QD for 4 days, read-out: Central Choroid concentration): 135 nM | concentration at 1 h (Group 2: 4 mg/mL suspension, 30 μm particles, TRIS 0.60%, glycerol 2%, HEC 0.2%, HPMC 0.08%, Vitamin K3 1 μM, pH 6, QD for 4 days, read-out: Central Retina concentration): 50.6 nM | concentration at 1 h (Group 2: 4 mg/mL suspension, 30 μm particles, TRIS 0.60%, glycerol 2%, HEC 0.2%, HPMC 0.08%, Vitamin K3 1 μM, pH 6, QD for 4 days, read-out: Cornea concentration): 7480 nM | Plasma concentration (Group 3: 4 mg/mL suspension, 3 μm particles, TRIS 0.60%, glycerol 2%, HEC 0.2%, HPMC 0.08%, Vitamin K3 1 μM, pH 6, QD for 4 days): 7.04 nM | concentration at 1 h (Group 3: 4 mg/mL suspension, 3 μm particles, TRIS 0.60%, glycerol 2%, HEC 0.2%, HPMC 0.08%, Vitamin K3 1 μM, pH 6, QD for 4 days, read-out: Central Choroid concentration): 159 nM | concentration at 1 h (Group 3: 4 mg/mL suspension, 3 μm particles, TRIS 0.60%, glycerol 2%, HEC 0.2%, HPMC 0.08%, Vitamin K3 1 μM, pH 6, QD for 4 days, read-out: Central Retina concentration): 92.8 nM
